Tested on: cholinergic synapse of the buccal ganglion
Format: cell-based, Aplysia californica

## Gla Cys Cys Gla Asp Gly BrW Cys Cys Thr Ala Ala OHP [P11.1]
  reversibility of the IPSC decrease: reversed by washing
